One series has as its system E. faecium OC3312. Nature of the series: MIC by microdilution broth method (NCCLS), E. faecium OC3312. The format is cell-based. As to conditions: Enterococcus faecium, OC3312, microdilution broth, cation adjusted Mueller-Hinton broth, 35° C., 16-20 hours; read-out: MIC (μg/mL) E. faecium OC3312. On the procedure:
(§1) Minimal inhibitory concentration (MIC) has been an indicator of in vitro antibacterial activity widely used in the art. The in vitro antimicrobial activity of the compounds was determined by the microdilution broth method following the test method from the National Committee for Laboratory Standards (NCCLS). This method is described in the NCCLS Document M7-A4, Vol. 17, No.2, “Methods for Dilution Antimicrobial Susceptibility Test for Bacteria that Grow Aerobically-Fourth Edition”, which is incorporated herein by reference.
(§2) In this method two-fold serial dilutions of drug in cation adjusted Mueller-Hinton broth are added to wells in microdilution trays. The test organisms are prepared by adjusting the turbidity of actively growing broth cultures so that the final concentration of test organism after it is added to the wells is approximately 5×10^4 CFU/well.
(§3) Following inoculation of the microdilution trays, the trays are incubated at 35° C. for 16-20 hours and then read. […] The amount of growth in the wells containing the test compound is compared with the amount of growth in the growth-control wells (no test compound) used in each tray. As set forth in Table 1, compounds of the present invention were tested against a variety of Gram positive and Gram negative pathogenic bacteria resulting in a range of activities, from 1 to ≧128 μg/mL depending on the organism tested.

For another series, the system named is MRSA OC 2878. Nature of the series: MIC by microdilution broth method (NCCLS), MRSA OC 2878. The format is cell-based, Staphylococcus aureus. As to conditions: Staphylococcus aureus, MRSA, cation adjusted Mueller-Hinton broth, 35° C., 16-20 hours, read-out: MIC (μg/mL) MRSA OC 2878. On the procedure:
as §1, §2, §3
In general terms: Dilution methods test growth across graded concentrations, often in twofold steps.

The subject of the next series is S. aureus. Nature of the series: MIC by microdilution broth method (NCCLS), S. aureus Broth. The series is classed as cell-based. The settings on record: Staphylococcus aureus, cation adjusted Mueller-Hinton broth, 35° C., 16-20 hours, read-out: MIC (μg/mL) S. aureus Broth. On the procedure:
as §1, §2, §3

Converted amounts (≈) assume the structure as drawn. Bounds are passed on as bounds.

For the molecule `CC(=O)NC[C@H]1CN(c2ccc(OC3CCN(S(=O)(=O)N(C)C)CC3)c(F)c2)C(=O)O1` [Compound 23, (S)-N-[[3-[3-Fluoro-4-{N-(dimethylsulfamoyl)piperidinyl-4-oxy}phenyl]-2-oxo-5-oxazolidinyl]methyl]acetamide], the melting point – broadly, the temperature of the solid-liquid transition – was 132 to 134 °C. Moreover, in the series with E. faecium OC3312, the MIC worked out at 16 µg/mL (≈ 34.9 µM). Besides, in the series with MRSA OC 2878, the MIC was 4 µg/mL (≈ 8.72 µM). In addition, in the series with S. aureus, the MIC is 16 µg/mL (≈ 34.9 µM).
`CC(=O)NC[C@H]1CN(c2ccc(OC3CCN(C(=O)c4cccs4)CC3)c(F)c2)C(=O)O1` [Compound 22, (S)-N-[[3-[3-Fluoro-4-{N-(2-thienylcarbonyl)piperidinyl-4-oxy}phenyl]-2-oxo-5-oxazolidinyl]methyl]acetamide] returned a melting point of 48 to 51 °C. In addition, the MIC in the series with E. faecium OC3312 was found to be 8 µg/mL (≈ 17.3 µM). Further, in the series with MRSA OC 2878, the MIC turned out to be 4 µg/mL (≈ 8.67 µM). In the series on S. aureus, the MIC is 8 µg/mL (≈ 17.3 µM).
`CC(=O)NC[C@H]1CN(c2ccc(OC3CCN(C(=O)c4ccco4)CC3)c(F)c2)C(=O)O1` [Compound 51, (S)-N-[[3-[3-Fluoro-4-{N-(2-furoyl)piperdinyl-4-oxy}phenyl]-2-oxo-5-oxazolidinyl]methyl]acetamide] registered a melting point of 134 to 136 °C. For the same molecule, the MIC in the series with E. faecium OC3312 came to 8 µg/mL (≈ 18 µM). Besides, the MIC in the series with MRSA OC 2878 is 8 µg/mL (≈ 18 µM). In addition, in the series with S. aureus, the MIC stood at 16 µg/mL (≈ 35.9 µM).
Molecule `CC(=O)NC[C@H]1CN(c2ccc(OC3CN(C(=O)CO)C3)c(F)c2)C(=O)O1` [Compound 61, (S)-N-[[3-[3-Fluoro-4-{N-(α-hydroxyacetyl)azetidinyl-3-oxy}phenyl]-2-oxo-5-oxazolidinyl]methyl]acetamide] came in with a melting point of 158 to 160 °C. The MIC in the series with E. faecium OC3312 was found to be 128 µg/mL (≈ 336 µM). For the same molecule, the MIC with MRSA OC 2878 was 64 µg/mL (≈ 168 µM). In addition, in the series with S. aureus, the MIC was found to be 32 µg/mL (≈ 83.9 µM).
Taken in the same sequence, the figures for `CC(=O)NC[C@H]1CN(c2ccc(OC3CCN(C(=O)COCc4ccccc4)C3)c(F)c2)C(=O)O1` (stereo partly drawn) [Compound 39, (S)-N-[[3-[3-Fluoro-4-{N-(benzyloxyacetyl)pyrrolidinyl-3-oxy}phenyl]-2-oxo-5-oxazolidinyl]methyl]acetamide] were 53 to 55 °C, 16 µg/mL (≈ 33 µM), 16 µg/mL (≈ 33 µM) and 16 µg/mL (≈ 33 µM).
As for `CC(=O)NC[C@H]1CN(c2ccc(OC3CCN(C(=O)CO)C3)c(F)c2)C(=O)O1` (stereo partly drawn) [Compound 40, (S)-N-[[3-[3-Fluoro-4-{N-(α-hydroxyacetyl)pyrrolidinyl-3-oxy}phenyl]-2-oxo-5-oxazolidinyl]methyl]acetamide], the melting point fell in the range of 97 to 99 °C. Moreover, in the series with E. faecium OC3312, the MIC was 16 µg/mL (≈ 40.5 µM). Further, in the series on MRSA OC 2878, the MIC came to 8 µg/mL (≈ 20.2 µM). Moreover, in the series with S. aureus, the MIC was 4 µg/mL (≈ 10.1 µM).
Molecule `CC(=O)NC[C@H]1CN(c2ccc(OC3CCN(C(=O)c4cccnc4)CC3)c(F)c2)C(=O)O1` [Compound 19, (S)-N-[[3-[3-Fluoro-4-{N-(3-pyridoyl)piperidinyl-4-oxy}phenyl]-2-oxo-5-oxazolidinyl]methyl]acetamide] showed a melting point of 49 to 53 °C. Further, the MIC in the series on E. faecium OC3312 is 32 µg/mL (≈ 70.1 µM). Moreover, the MIC in the series on MRSA OC 2878 was determined as 32 µg/mL (≈ 70.1 µM). Moreover, the MIC with S. aureus came to 16 µg/mL (≈ 35.1 µM).
Take `CC(=O)NC[C@H]1CN(c2ccc(OC3CCN(C(=O)N4CCOCC4)CC3)c(F)c2)C(=O)O1` [Compound 25, (S)-N-[[3-[3-Fluoro-4-{N-(4-morpholinocarbamoyl)piperidinyl-4-oxy}phenyl]-2-oxo-5-oxazolidinyl]methyl]acetamide]: the melting point was in the range of 167 to 170 °C. In the series on E. faecium OC3312, the MIC was determined as 64 µg/mL (≈ 138 µM). Besides, in the series with MRSA OC 2878, the MIC amounted to 32 µg/mL (≈ 68.9 µM). For the same molecule, the MIC in the series on S. aureus came to 32 µg/mL (≈ 68.9 µM).
Regarding `CC(=O)NC[C@H]1CN(c2ccc(OC3CCCN(C(=O)OC(C)(C)C)C3)c(F)c2)C(=O)O1` (stereo partly drawn) [Compound 34, (S)-N-[[3-[3-Fluoro-4-{N-(t-butoxycarbonyl)piperidinyl-3-oxy}phenyl]-2-oxo-5-oxazolidinyl]methyl]acetamide], the melting point was in the range of 60 to 63 °C. In addition, the MIC with E. faecium OC3312 was more than 128 µg/mL. For the same molecule, the MIC in the series with MRSA OC 2878 was determined as 64 µg/mL (≈ 142 µM). Moreover, the MIC in the series with S. aureus worked out at 128 µg/mL (≈ 284 µM).
Take `CC(=O)NC[C@H]1CN(c2ccc(OC3CCN(C(=O)c4cccc(C(F)(F)F)c4)CC3)c(F)c2)C(=O)O1` [Compound 10, (S)-N-[[3-[3-Fluoro-4-{N-(3-trifluoromethylbenzoyl)piperidinyl-4-oxy}phenyl]-2-oxo-5-oxazolidinyl]methyl]acetamide]: the melting point lay in the range of 150 to 152 °C. Moreover, in the series with E. faecium OC3312, the MIC turned out to be 32 µg/mL (≈ 61.1 µM). The MIC in the series with MRSA OC 2878 was 16 µg/mL (≈ 30.6 µM). Besides, the MIC in the series with S. aureus was 16 µg/mL (≈ 30.6 µM).
Molecule `CC(=O)NC[C@H]1CN(c2ccc(OC3CN(C(=O)COC(C)=O)C3)c(F)c2)C(=O)O1` [Compound 59, (S)-N-[[3-[3-Fluoro-4-{N-(acetoxyacetyl)azetidinyl-3-oxy}phenyl]-2-oxo-5-oxazolidinyl]methyl]acetamide] returned a melting point of 172 to 175 °C. Also, in the series with E. faecium OC3312, the MIC turned out to be 16 µg/mL (≈ 37.8 µM). Besides, the MIC in the series on MRSA OC 2878 stood at 8 µg/mL (≈ 18.9 µM). Also, the MIC in the series with S. aureus stood at 4 µg/mL (≈ 9.45 µM).
The molecule `CC(=O)NC[C@H]1CN(c2ccc(OC3CCN(S(C)(=O)=O)CC3)nc2)C(=O)O1` [Compound 44, (5S)-3-[6-{N-(Methanesulfonyl)piperidinyl-4-oxy}-pyridin-3-yl]-5-methylacetamide-oxazolidin-2-one] yielded a melting point of 175 to 176 °C. For the same molecule, the MIC in the series on E. faecium OC3312 was 128 µg/mL (≈ 310 µM). In addition, the MIC in the series on MRSA OC 2878 was 64 µg/mL (≈ 155 µM). Moreover, the MIC in the series with S. aureus is 32 µg/mL (≈ 77.6 µM).
Taken in the same sequence, the figures for `CC(=O)NC[C@H]1CN(c2ccc(OC3CCN(S(C)(=O)=O)CC3)c(F)c2)C(=O)O1` [Compound 6, (S)-N-[[3-[3-Fluoro-4-{N-(methanesulfonyl)piperidinyl-4-oxy}phenyl]-2-oxo-5-oxazolidinyl]methyl]acetamide] were 123 to 125 °C, 8 µg/mL (≈ 18.6 µM), 4 µg/mL (≈ 9.31 µM) and 4 µg/mL (≈ 9.31 µM).
In the case of `CC(=O)NC[C@H]1CN(c2ccc(OC3CCN(C(=O)OC(C)(C)C)CC3)c(F)c2)C(=O)O1` [Compound 1, (S)-N-[[3-[3-Fluoro-4-{N-(t-butoxycarbonyl)piperidinyl-4-oxy}phenyl]-2-oxo-5-oxazolidinyl]methyl]acetamide], the melting point is 179 to 180 °C. In addition, in the series on E. faecium OC3312, the MIC is more than 32 µg/mL. Further, the MIC with MRSA OC 2878 came out at 16 µg/mL (≈ 35.4 µM). Besides, in the series on S. aureus, the MIC was found to be 32 µg/mL (≈ 70.9 µM).
On to `CC(=O)NC[C@H]1CN(c2ccc(OC3CCN(C(=O)c4ccccn4)CC3)c(F)c2)C(=O)O1` [Compound 20, (S)-N-[[3-[3-Fluoro-4-{N-(2-pyridoyl)piperidinyl-4-oxy}phenyl]-2-oxo-5-oxazolidinyl]methyl]acetamide], for which the melting point was 55 to 58 °C. For the same molecule, the MIC with E. faecium OC3312 was 16 µg/mL (≈ 35.1 µM). The MIC with MRSA OC 2878 turned out to be 8 µg/mL (≈ 17.5 µM). Also, the MIC in the series on S. aureus worked out at 8 µg/mL (≈ 17.5 µM).
`CC(=O)NC[C@H]1CN(c2ccc(OC3CCN(C(=O)CCc4cccnc4)CC3)c(F)c2)C(=O)O1` [Compound 27, (S)-N-[[3-[3-Fluoro-4-{N-(3-pyridin-3-yl-propionyl)piperidinyl-4-oxy}phenyl]-2-oxo-5-oxazolidinyl]methyl]acetamide]: the melting point lay within 45 to 47 °C. In addition, in the series with E. faecium OC3312, the MIC is 16 µg/mL (≈ 33 µM). For the same molecule, the MIC in the series on MRSA OC 2878 was found to be 16 µg/mL (≈ 33 µM). In addition, the MIC with S. aureus was found to be 16 µg/mL (≈ 33 µM).
As for `CC(=O)NC[C@H]1CN(c2ccc(OC3CCN(C(=O)CN)CC3)c(F)c2)C(=O)O1` [Compound 16], the melting point fell in the range of 142 to 146 °C. In addition, in the series on E. faecium OC3312, the MIC worked out at 32 µg/mL (≈ 78.3 µM). For the same molecule, the MIC in the series on MRSA OC 2878 came out at 32 µg/mL (≈ 78.3 µM). Also, the MIC in the series on S. aureus came out at 32 µg/mL (≈ 78.3 µM).

(Values after patent publication US20020103377A1, “Piperidinyloxy and pyrrolidinyloxy oxazolidinone antibacterials” (priority 1999, published 2002).)
